According to patent US20180305408A1, “COMPOUNDS FOR INDUCING TISSUE FORMATION AND USES THEREOF” (HISTIDE AG, priority 2015, published 2018):
No end group written: not given here.

Key:
[1] = Stability of non-covalent coating of fluorescent peptides on apatite ceramics or type-I collagen sponge; format: physicochemical; conditions: FITC-bound peptide on apatite ceramics or type-I collagen sponge; after 3, 7 or 10 days
Protocol: Non-covalent modifications of the materials were performed in Air Atmosphere at room temperature. The non-covalent coating strategy consisted in using a mixture of compound of the invention (SEQ ID NO: 9; concentration of 1×10^−3M) with an apatite ceramics implant or a mixture of compound of the invention (SEQ ID NO: 10; concentration of 1×10^−3M) with a type-I collagen sponge. The non-covalently coated conventional materials were characterized by using fluorescent peptides (Here SEQ ID NO: 9 and 10 covalently bound to fluorescein isothiocyanate (FITC), FIG. 3). The results shown here in FIG. 3 were obtained from experiments performed with apatite ceramics and a type-I collagen sponge. […] Indeed, after 3, 7 or 10 days, the osteogenic peptides were still coupled to the ceramics or the type-I collagen (FIG. 4). The biomaterial surface was characterized by X-ray photoelectron spectroscopy (Table 1). The X-ray photoelectron spectroscopy was performed as described in the Methods section.

hMSCs [2] = test: ALP activity of hMSCs on type-I collagen sponge coupled with compound; format: cell-based, Human; conditions: after 1 week of culture on type-I collagen sponge
Source text: Finally, it was verified that the hMSCs were differentiated into mature osteoblasts by analyzing the activity of the osteogenic biomarker ALP (Alkaline Phosphatase Activity). We observed an increase in the ALP activity after 1 week of culture on type-I collagen sponge coupled with GFR-binding compounds as defined herein (SEQ ID NO: 19) (FIG. 8b).

osteoblast progenitors = test: Osteogenic differentiation of osteoblast progenitors on coated materials (Osteopontin staining, Runx2 Q-PCR); format: cell-based; conditions: 48 hours on coated apatite ceramics or type-I collagen sponge vs native materials
Protocol: The cells were first fixed for 20 min with 4% paraformaldehyde/PBS at 4° C. After fixation, the cells were permeabilized in PBS containing 1% Triton X-100 for 15 min. Runx2, Osterix, Stro-1, Vinculin, Phalloidin, Osteopontin, Sox2, Sox9 antibodies were visualized by treating the cells with 1% (v/v) specific monoclonal antibodies for 1 hour at 37° C. Then the samples were incubated with Alexa Fluor® 568 or 647 (F(ab′)2 fragment of IgG(H+L)) during 30 min at room temperature. The cell nuclei were counterstained in 20 ng/mL DAPI for 10 min at room temperature.
Total RNA was extracted by using the RNeasy total RNA kit (Qiagen®) according to the manufacturer's instructions. Purified total RNA was used as a template in order to make cDNA by a reverse transcription reaction (Gibco Brl®) with random primers (Invitrogen®). […] Data were analyzed with the iCycler IQ™® software and compared by the ΔΔCt method. […]
The effect of the GFR-binding compounds as defined herein (SEQ ID NO: 19 and 20) on the differentiation of osteoblast progenitors was evaluated. […]
Finally, it was verified that the osteoblast progenitors were differentiated into mature osteoblasts by analyzing the expression of the osteogenic biomarker Runx2. An increase in the Runx2 gene expression after 24 hours of culture (FIG. 8a) was observed by using Quantitative Real Time Polymerase Chain Reaction as described in the Methods section.

hMSCs [3] = test: Cartilage regeneration: chondrocyte differentiation of hMSCs (Sox9, Aggrecan); format: cell-based, Human; conditions: after 96 hours of culture
Protocol: Total RNA was extracted by using the RNeasy total RNA kit (Qiagen®) according to the manufacturer's instructions. Purified total RNA was used as a template in order to make cDNA by a reverse transcription reaction (Gibco Brl®) with random primers (Invitrogen®). The cDNA was then used as a template for a real-time PCR amplification in the presence of SYBR green reagents (Bio-Rad®) by using a thermocycler (iCycler, Biorad®). Data were analyzed with the iCycler IQ™® software and compared by the ΔΔCt method. […]
Total RNA was extracted by using the RNeasy Mini Kit (Qiagen) and […] RNA was used for cDNA synthesis with AMV kit (Invitrogen®) according to the manufacturer′ instructions. Semi-quantitative reverse transcriptase-polymerase chain reaction (RT-PCR) was performed with Taq DNA Polymerase (Invitrogen®) in a thermocycler (Bio-Rad®). […] The PCR products were analyzed on 2% agarose gels. For the Aggrecan gene, the PCR bands were densitometrically quantified by using the BioCapt software (Vilber). […]
It was then verified that these hMSCs cultured with and without GFR-binding compounds as defined herein were differentiated into chondrocyte cells by analyzing the expression of the chondrocyte gene biomarker: Aggrecan. […] For that a semi-quantitative RT-PCR was performed as described in the Methods section for the Aggrecan gene and a Quantitative Real Time PCR for Sox9.

[4] = tested on: Human umbilical-vein endothelial cells; test: Endothelialization: area of adherent junctions (CD31) in HUVECs; format: cell-based; conditions: after 36 hours of culture
Protocol: Human umbilical-vein endothelial cells were cultured with and without endothelialization GFR-binding compounds as defined herein (SEQ ID NO: 26). An increase in the area of the adherent junctions (CD31) was observed after 36 hours of culture with GFR-binding compounds as defined herein (FIG. 10).

[5] = tested on: Human umbilical-vein endothelial cells; test: Angiogenesis: tube-like structure formation by HUVECs; format: cell-based; conditions: after 18 hours of culture
Protocol: Human umbilical-vein endothelial cells were cultured with and without vascular peptides (SEQ ID NO: 27).

Hair Follicle Stem Cells = test: Activation of hair follicle stem cells (Sox2 expression, BMP-6 release); format: cell-based, Mouse
Source text: The following starting materials and reagents were used: • Apatite ceramics (also called apatite or ceramic in the present invention) were synthetized as described in Mater Res. 2004; 7(4): 625-630. • Titanium was obtained from Goodfellow®. • Hydrogel (poly(acrylamide-co-acrylic acid) gel) was synthetized as described in Langmuir 2011; 27(22):13635-42. • PEEK was obtained from Goodfellow®. • PET (Poly(ethylene terephthtalate) was obtained from Goodfellow@. • Type-I collagen sponge was obtained from Sigma®. • Hexane was obtained from Sigma®. • 3-succinimidyl-3-maleimidopropionate (SMP) was obtained from Sigma®. • DMF was obtained from Sigma®. • PBS 1× was obtained from Gibco®. • 3-(ethoxydimethylsilyl)propylamine was obtained from Sigma®. • Ammonium persulfate was obtained from Biorad®. • N,N,N′,N′-tetramethylethylenediamine was obtained from Aldrich®. • Acrylamid was obtained from Merck®. • Acrylic acid was obtained from Merck®. • N,N-methylene-bis-acrylamide was obtained from Merck®. • NaOH was obtained from Aldrich®. • N,N,N′,N′-tetramethylethylenediamine was obtained from Aldrich®. • Dimethylaminopropyl-3-ethylcarbodiimide hydrochloride was obtained from Aldrich®. • N-hydroxysuccinimide was obtained from Aldrich®. • 2-(N-morpholino)-ethane sulfonic acid was obtained from Aldrich®. • MilliQ water: is water characterised in terms of resistivity (typically 18.2 MΩ·cm at 25° C.). • Low glucose Dulbecco's Modified Eagle Medium (DMEM) was obtained from Invitrogen® • Minimum Essential Medium Eagle without ascorbic acid (αMEM) was obtained from Invitrogen®. • All of the cell culture experiments were carried out without any serum in the medium for the first 8 hours of culture. • Osteoblast progenitors or precursor osteoblasts: MC3T3-E1 cells were obtained from ATCC®. These cells were cultured in Alpha-MEM medium supplemented with 10% fetal calf serum (FCS) and 1% penicillin/streptomycin. All cells were used at a low passage number (passage 7), were subconfluently cultured and were seeded at 10^4 cells/cm^2 for the purpose of the experiments. • Human bone marrow Mesenchymal Stem Cells (hMSCs) were obtained from Lonza®. These cells were cultured in Alpha-MEM supplemented with 10% (v/v) FBS and 1% penicillin/streptomycin and incubated in a humidified atmosphere containing 5% (v/v) CO2 at 37° C. All cells were used at a low passage number (passage 2 to 4), were subconfluently cultured and were seeded at 10^4 cells/cm^2 for the purpose of the experiments. • Human adipose Mesenchymal Stem Cells (haMSCs) were obtained from Lonza®. These cells were cultured in Alpha-MEM supplemented with 10% (v/v) FBS and 1% penicillin/streptomycin and incubated in a humidified atmosphere containing 5% (v/v) CO2 at 37° C. […]

Neurons = test: Neuron growth (dendrite growth, GAP43 Q-PCR); format: cell-based
Source text: […]

SEQ ID NO: 9: compound of the invention non-covalently coated on apatite ceramics; tested bound to FITC; sequence not in this part (WWFWGSAISTLYLIGKTPKILKNYQ; also: FITC label, site not given here, cyclic, ring not given here)
release of peptides from the coated material over time [1]: no significant release

SEQ ID NO: 10: compound of the invention non-covalently coated on type-I collagen sponge; tested bound to FITC; sequence not in this part (GTPGPSAISTLYLIGKTPKILKNYQ; also: cyclic, ring type not given here, bound to FITC, place not given here)
release of peptides from the coated material over time [1]: no significant release

SEQ ID NO: 19: GFR-binding compound, osteogenic, coated on apatite ceramics or collagen sponge; sequence not in this part (WWFWGSAISTLYLDEYDKVVLKNYQ; also: cyclic, ring type not given here)
ALP activity (hMSCs [2]): increase
production of extracellular matrix proteins such as Osteopontin (OPN) (osteoblast progenitors): extensive amounts

SEQ ID NO: 20: GFR-binding compound, osteogenic, coated on apatite ceramics or collagen sponge; sequence not in this part (GTPGPSAISTLYLGGGGLKNYQ; also: cyclic, ring type not given here)
production of extracellular matrix proteins such as Osteopontin (OPN) (osteoblast progenitors): extensive amounts

SEQ ID NO: 23: GFR-binding compound inducing cartilage regeneration; sequence not in this part (ELEPLPIVYYVGRKPKVEQLSNGG; also: cyclic, ring type not given here)
expression of the Sox9 protein (hMSCs [3]): expression of the Sox9 protein was observed

SEQ ID NO: 24: GFR-binding compound inducing cartilage regeneration; sequence not in this part (EPLPIVYYVGRTPKVEQLSNGG; also: cyclic, ring type not given here)
expression of the Sox9 protein (hMSCs [3]): expression of the Sox9 protein was observed

SEQ ID NO: 26: endothelialization GFR-binding compound; sequence not in this part (RSVKVAKVRIKPHQGQHKEVQVGG; also: cyclic, ring type not given here)
area of the adherent junctions (CD31) [4]: increase

SEQ ID NO: 27: vascular peptide; sequence not in this part (SNITMQIMRIKPHQGQHIGEMSGG; also: cyclic, ring type not given here)
formation of tube-like structures [5]: formation of tube-like structures was observed

SEQ ID NO: 29: GFR-binding compound tested on hair follicle stem cells; sequence not in this part (DENKNSSLSILFFDENKNVVLKVYP; also: cyclic, ring type not given here)
BMP-6 release in the cell culture medium (Hair Follicle Stem Cells): decrease
Sox2 protein expression (Hair Follicle Stem Cells): increase

SEQ ID NO: 30: GFR-binding compound tested on hair follicle stem cells; sequence not in this part (DENEKSSLSILFFDENEKVVLKVYP; also: cyclic, ring type not given here)
BMP-6 release in the cell culture medium (Hair Follicle Stem Cells): decrease
Sox2 protein expression (Hair Follicle Stem Cells): increase

SEQ ID NO: 38: neurogenic peptide; sequence not in this part (SPISILYIDAANNVVYKQYEDAAN; also: cyclic, ring type not given here)
establishment of cell-cell contacts via dendrite growth (Neurons; after 6 hours of culture): rapid establishment of cell-cell contacts
GAP43 gene expression (Neurons; after 48 hours of culture, Q-PCR): high level of expression
